In patent US8586588B2, “Aryl pyridazinone derivatives and their use as H3 receptor ligands” (Cephalon, Inc., priority 2006, dated 2013):
Counter-ions that a name gives are not always drawn.

Compound	melting point [°C]
Cc1cc(-c2ccc(OCCCN3CCCCC3)cc2)n[nH]c1=O (as salt: HCl) [Example 123, 4-Methyl-6-[4-(3-piperidin-1-yl-propoxy)-phenyl]-2H-pyridazin-3-one]	227 to 229
Cn1nc(-c2ccc(OCCCN3CCC[C@H]3CO)cc2)c2c(c1=O)CCCC2 (as salt: HCl) [Example 124, 4-{4-[3-((S)-2-Hydroxymethyl-pyrrolidin-1-yl)-propoxy]-phenyl}-2-methyl-5,6,7,8-tetrahydro-2H-phthalazin-1-one]	120 to 122
C[C@@H]1CCCN1CCCOc1cccc(-c2nn(C)c(=O)c3c2CCC3)c1 (as salt: HCl) [Example 125, 2-Methyl-4-{3-[3-((R)-2-methyl-pyrrolidin-1-yl)-propoxy]-phenyl}-2,5,6,7-tetrahydro-cyclopenta[d]pyridazin-1-one]	172 to 174
Cn1nc(-c2cccc(OCCCN3CCCCC3)c2)c2c(c1=O)CCC2 (as salt: HCl) [Example 126, 2-Methyl-4-[3-(3-piperidin-1-yl-propoxy)-phenyl]-2,5,6,7-tetrahydro-cyclopenta[d]pyridazin-1-one]	189 to 190
Cn1nc(-c2cccc(OCCCN3CCC[C@H]3CO)c2)c2c(c1=O)CCC2 (as salt: HCl) [Example 127, 4-{3-[3-((S)-2-Hydroxymethyl-pyrrolidin-1-yl)-propoxy]-phenyl}-2-methyl-2,5,6,7-tetrahydro-cyclopenta[d]pyridazin-1-one]	193 to 194
O=c1ccc(-c2ccc(OC3CCN(C4CCC4)CC3)nc2)nn1-c1ccccn1 (as salt: HCl) [Example 149, 6-[6-(1-Cyclobutyl-piperidin-4-yloxy)-pyridin-3-yl]-2-pyridin-2-yl-2H-pyridazin-3-one]	261 to 262
O=C1CCC(c2ccc(OC3CCN(C4CCC4)CC3)cc2)=NN1c1ccccn1 (as salt: HCl) [Example 158, 6-[4-(1-Cyclobutyl-piperidin-4-yloxy)phenyl]-2-pyridin-2-yl-4,5-dihydro-2H-pyridazin-3-one]	263 to 265
O=C1NN=C(c2ccc(OC3CCN(C4CCC4)CC3)cc2)C2CCC12 (stereo not shown) (as salt: HCl) [Example 172, 5-[4-(1-Cyclobutyl-piperidin-4-yloxy)-phenyl]-3,4-diaza-bicyclo[4.2.0]oct-4-en-2-one]	285 to 288
CC1CC(=O)N(c2ccccn2)N=C1c1ccc(OC2CCN(C3CCC3)CC2)cc1 (stereo not shown) (as salt: HCl) [Example 193, 6-[4-(1-Cyclobutyl-piperidin-4-yloxy)-phenyl]-5-methyl-2-pyridin-2-yl-4,5-dihydro-2H-pyridazin-3-one]	143 to 145

Further lines, results first:

melting point [°C]	Compound
201 to 203	CC1CC(c2ccc(OCCCN3CCC[C@H]3C)cc2)=NNC1=O (stereo partly drawn) (as salt: HCl) [Example 121, 4-Methyl-6-{4-[3-((R)-2-methyl-pyrrolidin-1-yl)-propoxy]-phenyl}-4,5-dihydro-2H-pyridazin-3-one]
207 to 208	Cc1cc(-c2ccc(OCCCN3CCC[C@H]3C)cc2)n[nH]c1=O (as salt: HCl) [Example 122, 4-Methyl-6-{4-[3-((R)-2-methyl-pyrrolidin-1-yl)-propoxy]-phenyl}-2H-pyridazin-3-one]
251 to 253	CC(C)n1ncc(-c2ccc(OCCCN3CCC[C@H]3C)cc2)cc1=O (as salt: HCl) [Example 128, 2-Isopropyl-5-{4-[3-((R)-2-methyl-pyrrolidin-1-yl)-propoxy]-phenyl}-2H-pyridazin-3-one]
203 to 205	C[C@@H]1CCCN1CCCOc1ccc(C2=NN(c3ccccn3)C(=O)CC2)cc1 (as salt: HCl) [Example 183, 6-{4-[3-((R)-2-Methyl-pyrrolidin-1-yl)-propoxy]-phenyl}-2-pyridin-2-yl-4,5-dihydro-2H-pyridazin-3-one]
